From patent publication US20150099653A1, “PROCESS OF DIAGNOSTIC, PROGNOSTIC AND THERAPEUTIC MONITORING OF SOLID TUMORS” (CENTRE NATIONAL DE LA RECHERCHE SCIENTIFIQUE, priority 2011, published 2015)

Tests used:
[1] = system: line coming from HBCx-4A; assay: Everolimus dose response kinetic, WST (OD 450 nm); assay type: cell-based, human
Protocol: (§1) FIG. 17A to 17H presents the in vitro effect of everolimus on a line coming from HBCx-4A and put on plastic in function of time.
FIG. 17A: everolimus dose response kinetic
from top to bottom: no treatment (nott), black circle: 0.001 μM, white square: 0.1 μM, black triangle: 10 μM, bottom white square: 50 μM.
At 10 μM, the dose of everolimus is a cytotoxic dose. • x-axis: time in hours • y-axis: WST (OD 450 nm)

[2] = system: line coming from HBCx-4A; assay: RBD expression after in vitro everolimus (MESF, flow cytometry); assay type: cell-based, human; conditions: 0, 1, 100, 1000 nM; 6, 24, 72 h
Protocol: as §1
FIGS. 17B and 17C: 6 hours after everolimus.
FIGS. 17D and 17E: 24 hours after everolimus.
FIGS. 17F to 17H: 72 hours after everolimus. […]
High sensitivity is a challenge in flow cytometry. […] To visualize thin variation of expression level in multiple channel protocol, we need one unique unit, as fluorescence arbitrary units read on the same cytometer from two different fluorophores in their own channel cannot be confronted. Molecule of Equivalent Soluble Fluorochrome (MESF) is given by regression of arbitrary fluorescence measured versus standardisation beads coated with known amounts of same fluorochrome used in cells staining (AF647 and AF488 MESF quantum beads, BangsLab) acting as intra- and interexperiments calibrator. Measured fluorescence depends on lasers power, photomultiplicator tube settings, pH of staining medium. Fluorescence measured is proportional to the number of fluorochromes linked to the antibody used, itself correlated to the number of antibody bound to specific sites. […] For RBDs, quantification of non-specific signal was determined using secondary conjugated antibody alone.

[3] = system: breast tumor xenograft (HBCx-3); assay: Everolimus treatment in breast tumor xenograft, RBD expression; assay type: in vivo, mouse; conditions: HBCx-3, 2.5 mg/kg i.p.
Protocol: FIG. 12 presents the effect of an everolimus treatment (2.5 mg/kg, i.p.—intraperotoneal) in a model of breast tumor xenograft (HBCx-3) known to be responsive to everolimus treatment at short times.
Mice of example 1 have been used.
Four RBDs are studied: • Circle: Xeno.RBD • Triangle: Ampho.RBD • Diamond: FeLVC.RBD • Square: RD114.RBD
The human breast cancer specimens were obtained with informed consent from the patients undergoing surgery. Fresh tumor fragments were grafted into the interscapular fat pad of 8-12 week old female Swiss nude mice, under avertin anaesthesia. Mice were maintained in specific pathogen-free animal housing (Institut Curie, Paris, France) and received estrogen (17 mg/ml) diluted in drinking water. Xenografts appeared at the graft site 2 to 8 months after initial transplantation. They were subsequently transplanted from mouse to mouse and formally established since third in vivo passage (Marangoni, Elisabetta A new model of patient tumor-derived breast cancer xenografts for preclinical assays Clin Cancer Res. 2007 Jul. 1; 13(13):3989-98). All the experiments were performed in accordance with the UKCCCR guidelines about animal ethics in neoplasia research (British Journal of Cancer (2010) 102, 1555-1577). Present experiments were all performed in well-established tumor models and required a minimal tumor size of 600 mm^3 to collect enough cellular material. In all cases, particular attention through careful clinical examination has been paid to ensure that the recipient mice remained in a general good health to avoid as far as possible necrotic tumors. All tumors were aseptically excised from ethically sacrificed mice with autoclaved surgical material. NEDB and culture media w/o FCS are both equivalent for a short period before processing.
(§2) For metabolite transporters labelling, 200 000 to 500 000 viable cells were incubated at 37° C. in RBD premix consisting in 3 μl of a RBD mouse Fc tagged plus 3 μl of a RBD rabbit Fc tagged diluted in 50 μl of CO2 independent medium and washed once before secondary staining with fluorescent conjugated antibodies against mouse (goat anti-mouse AF488, Cell Signalling Technology) and rabbit (goat anti-rabbit AF647, Cell Signalling Technology). Rat anti-mouse Pan H-2 added in a third step allowed for the discrimination between human and mouse cells.

[4] = system: breast tumor xenograft (HBCx-3); conditions: HBCx-3, short times; cited from earlier work
[5] = system: HBCx-41 in vitro cultured dissociated cells; assay: In vitro treatment of ex vivo cultured dissociated cells with anti-cancer drugs, WST-1 viability; assay type: cell-based, human; conditions: HBCx-41 dissociated cells, incremental concentrations, 72 h incubation
Protocol: In vitro treatments with anti-cancer drugs were performed in flat bottomed 96 well microplates. Equal number of viable cells (40 000) were distributed in each well and allowed for attachment for 3 days. […] After 72 h incubation in presence or absence of compounds, WST-1 (based on the cleavage of the tetrazolium salt by respiratory mitochondrial enzyme, Roche diagnostic) was added and incubated following manufacturer instructions. Optic density was read on a microplate reader at 450 nm. A sigmoid analytical curve gave the 50% inhibitory concentration (IC50).

[6] = system: line coming from HBCx-4A; assay: Cisplatin dose response kinetic, cell viability (OD 450 nm); assay type: cell-based, human; conditions: HBCx-4A line on plastic
Protocol: FIG. 16A: cisplatine dose response kinetic
from top to bottom: white circle: no treatment (no tt), white square: 35 μM, white triangle (top point): 45 μM, white triangle (bottom point): 55 μM, white diamond: 65 μM, black circle: […]

[7] = system: line coming from HBCx-4A; assay: RBD expression after in vitro cisplatin (MFI, flow cytometry); assay type: cell-based, human
Protocol: FIG. 16B: PERV-A.RBD • x-axis: time in hours • y-axis: MFI (mean of fluorescent intensity)
as §2

[8] = system: breast tumor xenograft (HBCx-4A, HBCx-16, HBCx-8, HBCx-17); assay: Cisplatin treatment in four models of breast tumor xenograft, RBD expression; assay type: in vivo, mouse
Source text: The four models are the followings: HBCx-4A (non-responsive), HBCx-16 (responsive), HBCx-8 (responsive), HBCx-17 (responsive). […] Left histograms (FeLVC.RBD): from left to right HBCx-4A, HBCx-16, HBCx-8, HBCx-17. Right histograms (BLV.RBD): from left to right HBCx-4A, HBCx-16, HBCx-8, HBCx-17.

[9] = biological target: T1, PiT1 (human, UniProt Q8WUM9 1-679); assay: flow cytometry, RBD-Fc labelling of viable human breast cancer xenograft cells (HBCx-3, -4A, -8, -24, -30), read out in MESF
T1 construct: whole, on cells
T1 sequence: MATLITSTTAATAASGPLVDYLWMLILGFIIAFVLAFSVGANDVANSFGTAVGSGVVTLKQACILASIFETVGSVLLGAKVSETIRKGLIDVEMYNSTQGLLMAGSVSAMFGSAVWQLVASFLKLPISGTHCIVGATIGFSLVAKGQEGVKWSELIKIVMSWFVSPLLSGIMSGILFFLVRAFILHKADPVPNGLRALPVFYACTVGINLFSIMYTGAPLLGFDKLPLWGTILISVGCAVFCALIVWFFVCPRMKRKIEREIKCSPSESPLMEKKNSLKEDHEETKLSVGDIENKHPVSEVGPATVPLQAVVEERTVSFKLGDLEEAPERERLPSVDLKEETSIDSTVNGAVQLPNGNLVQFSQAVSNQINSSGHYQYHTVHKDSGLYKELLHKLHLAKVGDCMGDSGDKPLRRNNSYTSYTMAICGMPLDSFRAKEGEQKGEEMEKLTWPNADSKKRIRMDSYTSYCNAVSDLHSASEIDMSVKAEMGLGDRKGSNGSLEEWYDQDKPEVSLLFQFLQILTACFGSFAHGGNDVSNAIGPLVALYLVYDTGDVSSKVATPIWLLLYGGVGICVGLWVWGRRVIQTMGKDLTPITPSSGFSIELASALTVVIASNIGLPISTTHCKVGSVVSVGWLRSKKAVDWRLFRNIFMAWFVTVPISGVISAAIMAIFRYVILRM

[10] = biological target: T2, Glut1 (human, UniProt P11166 1-492); assay: as above
T2 construct: whole, on cells; also called glucose transporter GLUT-1
T2 sequence: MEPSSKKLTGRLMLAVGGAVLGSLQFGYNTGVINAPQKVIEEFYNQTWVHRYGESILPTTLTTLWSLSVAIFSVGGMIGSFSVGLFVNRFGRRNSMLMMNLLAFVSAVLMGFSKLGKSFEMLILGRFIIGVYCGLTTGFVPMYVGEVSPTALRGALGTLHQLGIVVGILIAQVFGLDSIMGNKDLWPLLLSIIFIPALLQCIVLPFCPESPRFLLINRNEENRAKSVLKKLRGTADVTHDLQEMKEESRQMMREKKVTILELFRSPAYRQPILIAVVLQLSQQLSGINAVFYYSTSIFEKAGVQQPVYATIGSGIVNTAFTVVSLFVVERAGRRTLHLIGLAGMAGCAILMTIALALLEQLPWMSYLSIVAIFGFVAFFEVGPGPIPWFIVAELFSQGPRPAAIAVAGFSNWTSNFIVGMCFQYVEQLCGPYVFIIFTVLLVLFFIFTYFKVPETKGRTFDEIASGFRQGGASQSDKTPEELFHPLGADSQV

[11] = everolimus, HBCx-4A line on plastic
[12] = 24 and 48 h, both doses (50 and 100 μM)

CO[C@H]1C[C@@H]2CC[C@@H](C)[C@@](O)(O2)C(=O)C(=O)N2CCCC[C@H]2C(=O)O[C@H]([C@H](C)C[C@@H]2CC[C@@H](OCCO)[C@H](OC)C2)CC(=O)[C@H](C)/C=C(\C)[C@@H](O)[C@@H](OC)C(=O)[C@H](C)C[C@H](C)/C=C/C=C/C=C/1C [everolimus]
effect on the line at 0.001 μM ([1]; everolimus 0.001 μM): proliferation of the line
cytostatic dose [1, 11]: 0.1 µM
cytotoxic dose [1, 11]: 10 µM
response of RBDs (MESF) [2]: time and dose dependant
variation of Ampho.RBD expression [3]: vary later
variation of FeLVC.RBD expression [3]: vary at the beginning of the treatment
variation of RD114.RBD expression [3]: higher than the one of Ampho
variation of Xeno.RBD expression [3]: vary at the beginning of the treatment
expression of RBDs with the treatment ([3]; Xeno, Ampho, FeLVC, RD114 RBDs): varies significantly
response of the model to treatment [4]: responsive

CC(=O)O[C@@]12CO[C@@H]1C[C@H](O)[C@@]1(C)C(=O)[C@H](O)C3=C(C)[C@@H](OC(=O)[C@H](O)[C@@H](NC(=O)OC(C)(C)C)c4ccccc4)C[C@@](O)([C@@H](OC(=O)c4ccccc4)[C@H]21)C3(C)C [docetaxel, Docetaxel]
toxicity (cell viability %) [5]: dose dependent toxicity

N.N.[Cl][Pt][Cl] [cisplatin, Cisplatin]
toxicity (cell viability %) [5]: dose dependent toxicity
cytostatic dose [6]: 55 µM
AmphoMLV.RBD expression at 100 μM compared with 50 μM ([7]; 100 μM vs 50 μM): higher than at 50 μM
RD114.RBD expression at 100 μM compared with 50 μM ([7]; 100 μM vs 50 μM): higher than at 50 μM
expression of AmphoMLV.RBD (MFI) [7, 12]: increased
expression of RD114.RBD (MFI) [7, 12]: increased
expression of PERV-A.RBD (MFI) ([7]; 48 h, both doses (50 and 100 μM)): increased
response of the model to treatment ([8]; HBCx-4A, 6 mg/kg i.p.): non-responsive
response of the model to treatment ([8]; HBCx-8, 6 mg/kg i.p.): responsive
response of the model to treatment ([8]; HBCx-16, 6 mg/kg i.p.): responsive
response of the model to treatment ([8]; HBCx-17, 6 mg/kg i.p.): responsive
expression of FeLVC.RBD ([8]; non responsive model (HBCx-4A), 72 h post treatment, 6 mg/kg i.p.): increase
expression of BLV.RBD ([8]; responsive and non responsive models, 72 h post treatment, 6 mg/kg i.p.): no difference
expression of FeLVC.RBD ([8]; responsive model HBCx-16, 72 h post treatment, 6 mg/kg i.p.): decrease

B1: Ko.RBD.mFC immunoadhesin (KoRV SU receptor binding domain fused to mouse IgG Fc) (Fc fusion)
chain: NQQHNNPHQPMTLTWQVLSQTGSVVWEKKAVEPPWTWWPSLEPDVCALVAGLESWDIPELTASASQQARPPDSNYEHAYNQITWGTLGCSYPRARTRIARSQFYVCPRDGRSLSEARRCGGLESLYCKEWGCETAGTAYWQPRSSWDLITVGQGHPTGTCERTGWCNPLKIEFTEPGKRFRNWLQGRTWGLRFYVTGHPGVQLTIRLVITSPPPVVVG
notes: also called KoRV.RBD-Mfc; KoRV.RBD.MFC; not shown: mouse IgG Fc fragment
binding result [9]: binds

B2: H2.RBD.mFC immunoadhesin (HTLV-2 SU receptor binding domain fused to mouse IgG Fc) (Fc fusion)
chain: QQSRCTLTVGISSYHSSPCSPTQPVCTWNLDLNSLTTDQRLHPPCPNLITYSGFHKTYSLYLFPHWIKKPNRQGLGYYSPSYNDPCSLQCPYLGCQSWTCPYTGPVSSPSWKFHSDVNFTQEVSQVSLRLHFSKCGSSMTLLVDAPGYDPLWFITSEPTQ
notes: also called HTLV-2.RBD-Mfc; RBD derived from HTLV-2; not shown: mouse IgG Fc fragment
binding result [10]: binds
